In patent publication US9695127B2, “Compounds for treating HIV and methods for using the compounds” (University of Pittsburgh—Of the Commonwealth System of …, priority 2012, dated 2017):

Assays:
[1] = system: HIV-1 NL4-3; assay: HIV-1 infectivity in TZM-b1 reporter cells (luciferase); format: cell-based; details: for inhibition at 3 µM: Human immunodeficiency virus 1, NL43, TZM-b1, 48 h, read-out: INFECTIVITY @ 3 μM % Inhibition vs. DMSO control; for INFECTIVITY @ 3 μM % Inhibition vs. DMSO control: TZM-b1 reporter cells
Procedure: Compounds (1 μM) shown in FIG. 7 were added to cultures of U87MG and CEM-T4 cells in 96-well plates, followed by infection with wild-type HIV-1 NL4-3 (50 pg p24 equivalents/ml) 1 hour later. […] Virus replication was assessed by p24 ELISA after 4 days (U87MG) or 9 days (CEM-T4). Data are expressed as the mean percent inhibition as compared to control cultures incubated with the carrier solvent (DMSO)±S.E.M. (n=4). […] FIG. 9 concerns infectivity assays. Compounds (3 μM) were added to cultures of the reporter cell line TZM-b1 followed by infection with either wild-type or Nef-defective (ΔNef) HIV NL4-3 in 96-well plates. After 48 hours, relative virus infectivity was assessed as luciferase production in infected cells. […]
HIV assays: Viral stocks were prepared by transfection of 293T cells (ATCC) with wild-type and Nef-defective (ΔNef) proviral genomes (NL4—3 strain) and amplified in the T-cell line, MT2 (NIH AIDS Research and Reference Reagent Program). Viral replication was assessed in the U87MG astroglioma cell line engineered to express the HIV-1 co-receptors CD4 and CXCR4 or in the T-lymphoblast cell line, CEM-T4. […] Compounds were solubilized in DMSO, and added to the cell culture medium 1 h prior to infection with HIV. Viral replication was monitored for either 4 days (U87MG) or 9 days (CEM-T4) by measuring p24 Gag protein levels in the culture supernatant using standard ELISA-based techniques. HIV-1 infectivity was measured using the reporter cell line, TZM-b1 (NM AIDS Research and Reference Reagent Program). Cells were grown in 96-well plates (2.5×10^4) 8 h prior to virus infection to permit adherence. Compounds were pre-incubated with wild-type HIV-1 for 4 h prior to addition to the cells in a final volume of 200 μl. After 48 h at 37° C., the cells were washed with PBS and lysed in luciferase lysis buffer (Promega) by rocking for 15 min Lysates (40 μl) were transferred to white 96-well plates and 50 μl luciferase reagent (Promega) was injected into each well. Readings were recorded with a delay time of 2 sec and an integration period of 10 sec.

[2] = system: wild-type HIV-1 NL4-3; assay: HIV-1 replication in U87MG cells (p24 ELISA); format: cell-based; details: for inhibition at 3 µM: Human immunodeficiency virus 1, NL43, U-87 MG, 96 h, read-out: REPLICATION @ 3 μM % Inhibition vs. DMSO control; for REPLICATION @ 3 μM % Inhibition vs. DMSO control: U87MG cells
From the text: In particular disclosed embodiments, the compound may be used to block Nef-dependent HIV replication and infectivity. FIG. 7 illustrates the chemical structures of the compounds identified by the Nef:Hck HTS campaign and subsequently shown to block Nef-dependent enhancement of HIV-1 replication in two different cell lines are shown, along with the IC50 values for each compound against Hck alone vs. the Nef:Hck complex. FIG. 8 illustrates results concerning HIV replication. […] Viral output for the DMSO-treated control cultures was consistently greater than 100-fold over the HIV input, typically ranging from 9,000-12,000 p24 equivalents/ml. Virus replication was assessed by p24 ELISA after 4 days (U87MG) or 9 days (CEM-T4). Data are expressed as the mean percent inhibition as compared to control cultures incubated with the carrier solvent (DMSO)±S.E.M. (n=4). Results of replication and cytotoxicity experiments with all certain hit compounds from the primary screen are shown in FIG. 3 and FIG. 4. FIG. 9 concerns infectivity assays. Compounds (3 μM) were added to cultures of the reporter cell line TZM-b1 followed by infection with either wild-type or Nef-defective (ΔNef) HIV NL4-3 in 96-well plates. After 48 hours, relative virus infectivity was assessed as luciferase production in infected cells. Results are plotted as the mean percent of HIV-1 infectivity observed in control cells incubated with the carrier solvent DMSO±S.E.M. (n=3). In the absence of Nef, infectivity is reduced by about 50% (ΔNef; dashed line shown for reference).
HIV assays: Viral stocks were prepared by transfection of 293T cells (ATCC) with wild-type and Nef-defective (ΔNef) proviral genomes (NL4—3 strain) and amplified in the T-cell line, MT2 (NIH AIDS Research and Reference Reagent Program). Viral replication was assessed in the U87MG astroglioma cell line engineered to express the HIV-1 co-receptors CD4 and CXCR4 or in the T-lymphoblast cell line, CEM-T4. Both the U87 MG and CEM-T4 cell lines support HIV-1 replication in a Nef-dependent manner, and were obtained from the NM AIDS Research and Reference Reagent Program. Compounds were solubilized in DMSO, and added to the cell culture medium 1 h prior to infection with HIV. Viral replication was monitored for either 4 days (U87MG) or 9 days (CEM-T4) by measuring p24 Gag protein levels in the culture supernatant using standard ELISA-based techniques. HIV-1 infectivity was measured using the reporter cell line, TZM-b1 (NM AIDS Research and Reference Reagent Program). Cells were grown in 96-well plates (2.5×10^4) 8 h prior to virus infection to permit adherence. Compounds were pre-incubated with wild-type HIV-1 for 4 h prior to addition to the cells in a final volume of 200 μl. After 48 h at 37° C., the cells were washed with PBS and lysed in luciferase lysis buffer (Promega) by rocking for 15 min Lysates (40 μl) were transferred to white 96-well plates and 50 μl luciferase reagent (Promega) was injected into each well. Readings were recorded with a delay time of 2 sec and an integration period of 10 sec.

## N=C(N)n1nc(-c2ccc(F)cc2)c(Cc2cccc(Cl)c2)c1O [DD-1-21]
[1]
  inhibition at 3 µM: 0%

## Oc1c(Cc2cccc(Cl)c2)c(-c2ccc(F)cc2)nn1C1=NCCN1 [DD-1-22]
[1]
  inhibition at 3 µM: 0%

## Cc1c(Cc2cccc(Cl)c2)c(-c2ccccc2)nn1C(=N)N [DD-1-26]
[1]
  inhibition at 3 µM: 0%

## COc1ccc(-c2nn(C(=N)N)c(O)c2Cc2cccc(Cl)c2)cc1 [DD-1-27]
[1]
  inhibition at 3 µM: 0%

## Nc1c(Cc2cccc(Cl)c2)c(-c2ccc(F)cc2)nn1C1=NCCN1 [DD-1-30]
[1]
  inhibition at 3 µM: 0%

## COc1cccc(Cc2c(-c3ccc([N+](=O)[O-])cc3)nn(C(=N)N)c2O)c1 [EAF-1-21]
[1]
  inhibition at 3 µM: 0%

## COc1cccc(Cc2c(-c3ccc(F)cc3)nn(C(=N)N)c2O)c1 [EAF-1-22]
[1]
  inhibition at 3 µM: 0%

## COc1ccc(-c2n[nH]c(O)c2CCc2cccc(Cl)c2)cc1 [JV-1-59-1]
[2]
  inhibition at 3 µM: 30.1%
[1]
  inhibition at 3 µM: 0%

## N=C(N)n1nc(-c2ccc([N+](=O)[O-])cc2)c(CCc2cccc(Cl)c2)c1O [JV-1-62-2-1]
[2]
  inhibition at 3 µM: 53.2%
[1]
  inhibition at 3 µM: 0%

## N=C(N)n1nc(-c2ccc([N+](=O)[O-])cc2)cc1O [JV-1-62-2-2]
[1]
  inhibition at 3 µM: 0%

## COc1ccc(-c2nn(C(=N)N)c(O)c2CCc2cccc(OC)c2)cc1 [JV-1-67-1]
[1]
  inhibition at 3 µM: 0%

## COc1ccc(-c2nn(C3=NCCN3)c(O)c2CCc2cccc(OC)c2)cc1 [JV-1-71-1]
[1]
  inhibition at 3 µM: 25.2%

## COc1ccc(-c2nn(C(=N)N)c(O)c2CCc2ccc(F)cc2)cc1 [JV-1-74-1]
[2]
  inhibition at 3 µM: 27.8%
[1]
  inhibition at 3 µM: 0%

## COc1ccc(-c2nn(C3=NCCN3)c(O)c2CCc2ccc(F)cc2)cc1 [JV-1-74-2]
[2]
  inhibition at 3 µM: 46.8%
[1]
  inhibition at 3 µM: 36.7%

## COc1ccc(-c2n[nH]c(O)c2CCc2ccc(F)cc2)cc1 [JV-1-75-1]
[1]
  inhibition at 3 µM: 0%

## COc1ccc(-c2nn(-c3ccccc3)c(O)c2CCc2ccc(F)cc2)cc1 [JV-1-79]
[2]
  REPLICATION @ 3 μM % Inhibition vs. DMSO control: Toxic
[1]
  INFECTIVITY @ 3 μM % Inhibition vs. DMSO control: Toxic

## COc1ccc(-c2nn(-c3ccccn3)c(O)c2CCc2ccc(F)cc2)cc1 [JV-1-80]
[2]
  REPLICATION @ 3 μM % Inhibition vs. DMSO control: Toxic
[1]
  INFECTIVITY @ 3 μM % Inhibition vs. DMSO control: Toxic

## COc1ccc(-c2nn(-c3ccccc3)c(OC)c2CCc2ccc(F)cc2)cc1 [JV-1-81]
[1]
  inhibition at 3 µM: 19.7%

## Cc1nn(C(=N)N)c(O)c1CCc1ccc(F)cc1 [JV-1-87]
[1]
  INFECTIVITY @ 3 μM % Inhibition vs. DMSO control: 0.0%

## N=C(N)n1nc(C2CC2)c(CCc2ccc(F)cc2)c1O [JV-1-89]
[2]
  REPLICATION @ 3 μM % Inhibition vs. DMSO control: 56.1%
[1]
  INFECTIVITY @ 3 μM % Inhibition vs. DMSO control: 28.0%

## COc1ccc(-c2nn(C(N)=S)c(O)c2CCc2ccc(F)cc2)cc1 [JV-1-94]
[1]
  INFECTIVITY @ 3 μM % Inhibition vs. DMSO control: 0.0%

## N=C(N)n1nc(-c2ccoc2)c(CCc2ccc(F)cc2)c1O [JV-1-96]
[2]
  REPLICATION @ 3 μM % Inhibition vs. DMSO control: Toxic
[1]
  INFECTIVITY @ 3 μM % Inhibition vs. DMSO control: 11.0%

## N=C(N)n1nc(-c2ccc(C(F)(F)F)cc2)c(Cc2cccc(Cl)c2)c1O [JV-2-9-1]
[1]
  inhibition at 3 µM: 0%

## N=C(N)n1nc(-c2ccc([N+](=O)[O-])cc2)c(Cc2cccc(Cl)c2)c1O [JV-2-10]
[1]
  inhibition at 3 µM: 3%

## NC(=S)n1nc(-c2ccc(C(F)(F)F)cc2)c(Cc2cccc(Cl)c2)c1O [JV-2-12]
[1]
  inhibition at 3 µM: 41.7%

## O=[N+]([O-])c1ccc(-c2n[nH]c(O)c2Cc2ccc(F)cc2)cc1 [JV-2-13]
[1]
  inhibition at 3 µM: 1.7%

## Oc1c(Cc2cccc(Cl)c2)c(-c2ccc(C(F)(F)F)cc2)nn1C1=NCCN1 [JV-2-14]
[1]
  inhibition at 3 µM: 54.7%

## N=C(N)n1nc(-c2ccccc2)c(Cc2cccc(Cl)c2)c1N [JV-2-16]
[1]
  inhibition at 3 µM: 0%

## N=C(N)n1nc(-c2ccc(F)cc2)c(Cc2cccc(Cl)c2)c1N [JV-2-19]
[1]
  inhibition at 3 µM: 0%

## COc1ccccc1/N=N/c1c(-c2ccc([N+](=O)[O-])cc2)nn(C(N)=S)c1O [JZ-1-49]
[1]
  inhibition at 3 µM: 0%

## COc1ccc(/N=N/c2c(-c3ccc([N+](=O)[O-])cc3)n[nH]c2O)cc1 [JZ-1-50]
[1]
  inhibition at 3 µM: 28.9%

## COc1cccc(/N=N/c2c(-c3ccc([N+](=O)[O-])cc3)nn(C(N)=S)c2O)c1 [JZ-1-56]
[1]
  inhibition at 3 µM: 0%

## Oc1[nH]nc(-c2ccccc2)c1/N=N/c1ccccc1 [JZ-1-58-2]
[1]
  inhibition at 3 µM: 1.7%

## NC(=S)n1nc(-c2ccccc2)c(/N=N/c2ccccc2)c1O [JZ-1-58-3]
[1]
  inhibition at 3 µM: 7.3%

## COc1ccc(-c2nn(C(N)=S)c(O)c2/N=N/c2cccc(Cl)c2)cc1 [JZ-1-62]
[1]
  inhibition at 3 µM: 9.3%

## NC(=S)n1nc(-c2ccc(C(F)(F)F)cc2)c(/N=N/c2cccc(Cl)c2)c1O [JZ-1-64]
[1]
  inhibition at 3 µM: 26.5%

## NC(=S)n1nc(-c2ccc([N+](=O)[O-])cc2)cc1O [JZ-1-94]
[1]
  inhibition at 3 µM: 0%

## O=[N+]([O-])c1ccc(-c2n[nH]c(O)c2Cc2cccc(Cl)c2)cc1 [JZ-1-97-2-2]
[2]
  inhibition at 3 µM: 0%
[1]
  inhibition at 3 µM: 12.7%

## NC(=O)n1nc(-c2ccc(F)cc2)c(/N=N/c2cccnc2)c1O [JZ-1-101]
[2]
  inhibition at 3 µM: 0%
[1]
  inhibition at 3 µM: 0%

## NC(=O)n1nc(-c2ccc(F)cc2)c(/N=N/c2cncc(Cl)c2)c1O [JZ-1-106]
[2]
  inhibition at 3 µM: 0%
[1]
  inhibition at 3 µM: 3.5%

## COc1ccc(-c2nn(-c3ccccc3)c(OC)c2/C=C/c2ccccc2)cc1 [JZ-1-145-1]
[1]
  inhibition at 3 µM: 0%

## COc1ccc(-c2nn(-c3ccccc3)c(OC)c2/C=C/c2cccc(F)c2)cc1 [JZ-1-146-1]
[1]
  inhibition at 3 µM: 0%

## COc1ccc(-c2nn(C(=N)N3CCOCC3)c(O)c2CCc2ccc(F)cc2)cc1 [JZ-1-154-2-2]
[1]
  inhibition at 3 µM: 0%

## O=[N+]([O-])c1ccc(-c2nn(C3=NCCN3)c(O)c2Cc2ccc(F)cc2)cc1 [JZ-1-171]
[1]
  inhibition at 3 µM: 0%

## N=C(N)n1nc(-c2ccc(F)cc2)c(Cc2ccc(F)cc2)c1O [JZ-1-175]
[1]
  inhibition at 3 µM: 0%

## Oc1c(Cc2ccc(F)cc2)c(-c2ccc(F)cc2)nn1C1=NCCN1 [JZ-1-176]
[1]
  inhibition at 3 µM: 7.7%

## N=C(N)n1nc(-c2ccc(C(F)(F)F)cc2)c(Cc2ccc(F)cc2)c1O [JZ-1-177]
[1]
  inhibition at 3 µM: 0%

## Oc1[nH]nc(-c2ccc(C(F)(F)F)cc2)c1Cc1ccc(F)cc1 [JZ-1-179-2]
[1]
  inhibition at 3 µM: 0%

## N=C(N1CCOCC1)n1nc(-c2ccc(C(F)(F)F)cc2)c(Cc2ccc(F)cc2)c1O [JZ-1-180]
[1]
  inhibition at 3 µM: 0%

## NC(=S)n1nc(-c2ccc([N+](=O)[O-])cc2)c(/N=N/c2ccccc2Cl)c1O [KM-1-48]
[1]
  inhibition at 3 µM: 19.3%

## C(=C\c1c[nH]nc1-c1ccccc1)/c1ccccc1 [Vit-3f]
[1]
  inhibition at 3 µM: 0%
